Tests used:
[1] = target: T1, wt human TYK2, catalytic site (Homo sapiens, UniProt P29597); experiment: HTRF KinEASE assay, TYK2; format: biochemical; settings: 1 μM ATP; read-out: IC50, inhibitory activity toward TYK2
T1 construct: 2 nM wt human TYK2, catalytic site (SignalChem/CAN); purchased SignalChem/CAN
T1 sequence (P29597 897-1176 limits assumed): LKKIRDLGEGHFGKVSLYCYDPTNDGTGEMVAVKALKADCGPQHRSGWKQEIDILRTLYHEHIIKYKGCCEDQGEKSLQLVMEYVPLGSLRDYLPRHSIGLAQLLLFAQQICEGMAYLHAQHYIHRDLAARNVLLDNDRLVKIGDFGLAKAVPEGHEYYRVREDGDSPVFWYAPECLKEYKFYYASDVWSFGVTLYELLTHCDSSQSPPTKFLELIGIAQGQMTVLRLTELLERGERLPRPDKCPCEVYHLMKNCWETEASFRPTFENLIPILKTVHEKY
Outline: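 2 nM wt human TYK2 catalytic domain with 1 μM biotinylated TK substrate and 1 μM ATP in 1× kinase buffer was incubated ≥30 min at room temperature. Antibody and streptavidin-XL665 were added, and HTRF emission ratios were read after 60 min.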

[2] = target: T2, wt human NUAK1, full length (Homo sapiens, UniProt O60285); experiment: TR-FRET LanthaScreen Eu Kinase Binding Assay, NUAK1; settings: 5 nM Kinase Tracer 236; read-out: IC50, inhibitory activity toward NUAK1
T2 construct: 8 nM wt human NUAK1, full length (ThermoFisher/USA); purchased ThermoFisher/USA
T2 sequence (O60285 1-661): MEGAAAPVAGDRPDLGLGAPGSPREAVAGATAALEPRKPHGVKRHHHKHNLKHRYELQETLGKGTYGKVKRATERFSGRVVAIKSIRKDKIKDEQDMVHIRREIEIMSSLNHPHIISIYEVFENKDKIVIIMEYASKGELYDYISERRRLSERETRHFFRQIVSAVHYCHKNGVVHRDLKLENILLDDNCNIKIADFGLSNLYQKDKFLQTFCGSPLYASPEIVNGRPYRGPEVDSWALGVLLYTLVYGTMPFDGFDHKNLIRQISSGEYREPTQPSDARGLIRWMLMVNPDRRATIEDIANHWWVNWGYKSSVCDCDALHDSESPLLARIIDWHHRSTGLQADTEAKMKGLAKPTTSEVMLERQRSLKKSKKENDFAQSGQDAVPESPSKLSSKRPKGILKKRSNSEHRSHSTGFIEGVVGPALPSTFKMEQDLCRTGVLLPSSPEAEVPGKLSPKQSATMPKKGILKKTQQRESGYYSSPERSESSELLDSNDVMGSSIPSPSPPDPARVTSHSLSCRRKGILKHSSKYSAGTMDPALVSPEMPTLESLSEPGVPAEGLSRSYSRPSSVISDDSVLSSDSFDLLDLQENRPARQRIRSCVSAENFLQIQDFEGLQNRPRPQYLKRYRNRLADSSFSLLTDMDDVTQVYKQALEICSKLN
Outline: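 TR-FRET tracer-displacement binding with 8 nM full-length wild-type human NUAK1, 2 nM Eu-anti-His antibody and 5 nM Kinase Tracer 236 in 1× Kinase Buffer A (final). Compound, kinase/antibody and tracer incubated 1 h at room temperature; emission ratios analysed per kit protocol.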

| IC50 [1] | IC50 [2] | SMILES |
| --- | --- | --- |
| < 10 nM | 10 to 100 nM | Fc1cc2c(cc1-c1ccnnc1)N=C(c1c(F)cccc1Cl)Nc1c[nH]nc1-2 [Compound 230, 5-(2-chloro-6-fluorophenyl)-9-fluoro-8-(pyridazin-4-yl)-2,4-dihydrobenzo[d]pyrazolo[3,4-f][1,3]diazepine] |
| 10 to 100 nM | 10 to 100 nM | Fc1ccccc1-c1ccc2c(c1)N=C(c1c(F)cccc1F)Nc1c[nH]nc1-2 [Compound 233, 5-(2,6-difluorophenyl)-8-(2-fluorophenyl)-2,4-dihydrobenzo[d]pyrazolo[3,4-f][1,3]diazepine] |
| 10 to 100 nM | < 10 nM | Fc1ccccc1-c1ccc2c(c1)N=C(c1c(F)cccc1Cl)Nc1c[nH]nc1-2 [Compound 234, 5-(2-chloro-6-fluorophenyl)-8-(2-fluorophenyl)-2,4-dihydrobenzo[d]pyrazolo[3,4-f][1,3]diazepine] |
| 10 to 100 nM | 10 to 100 nM | CC(C)Oc1cc2c(cc1F)-c1n[nH]cc1N=C(c1c(F)cccc1Cl)N2 [Compound 235, 5-(2-chloro-6-fluorophenyl)-9-fluoro-8-isopropoxy-2,6-dihydrobenzo[d]pyrazolo[3,4-f][1,3]diazepine] |
| < 10 nM | 100 to 1000 nM | Fc1ccccc1-c1ccc2c(c1)N=C(c1c(Cl)cccc1Cl)Nc1c[nH]nc1-2 [Compound 236, 5-(2,6-dichlorophenyl)-8-(2-fluorophenyl)-2,4-dihydrobenzo[d]pyrazolo[3,4-f][1,3]diazepine] |
| 10 to 100 nM | < 10 nM | Fc1ccc(-c2ccc3c(c2)N=C(c2c(F)cccc2F)Nc2c[nH]nc2-3)cc1 [Compound 237, 5-(2,6-difluorophenyl)-8-(4-fluorophenyl)-2,4-dihydrobenzo[d]pyrazolo[3,4-f][1,3]diazepine] |
| 10 to 100 nM | 10 to 100 nM | Fc1ccc(-c2ccc3c(c2)N=C(c2c(F)cccc2Cl)Nc2c[nH]nc2-3)cc1 [Compound 238, 5-(2-chloro-6-fluorophenyl)-8-(4-fluorophenyl)-2,4-dihydrobenzo[d]pyrazolo[3,4-f][1,3]diazepine] |
| 10 to 100 nM | 10 to 100 nM | Fc1cccc(-c2ccc3c(c2)N=C(c2c(F)cccc2F)Nc2c[nH]nc2-3)c1 [Compound 240, 5-(2,6-difluorophenyl)-8-(3-fluorophenyl)-2,4-dihydrobenzo[d]pyrazolo[3,4-f][1,3]diazepine] |
| < 10 nM | 10 to 100 nM | Fc1cccc(-c2ccc3c(c2)N=C(c2c(F)cccc2Cl)Nc2c[nH]nc2-3)c1 [Compound 241, 5-(2-chloro-6-fluorophenyl)-8-(3-fluorophenyl)-2,4-dihydrobenzo[d]pyrazolo[3,4-f][1,3]diazepine] |
| < 10 nM | 10 to 100 nM | Fc1ccc(-c2ccc3c(c2)N=C(c2c(Cl)cccc2Cl)Nc2c[nH]nc2-3)cc1 [Compound 242, 5-(2,6-dichlorophenyl)-8-(4-fluorophenyl)-2,4-dihydrobenzo[d]pyrazolo[3,4-f][1,3]diazepine] |
| 10 to 100 nM | 100 to 1000 nM | Fc1cccc(-c2ccc3c(c2)N=C(c2c(Cl)cccc2Cl)Nc2c[nH]nc2-3)c1 [Compound 243, 5-(2,6-dichlorophenyl)-8-(3-fluorophenyl)-2,4-dihydrobenzo[d]pyrazolo[3,4-f][1,3]diazepine] |
| 10 to 100 nM | 100 to 1000 nM | Fc1cc2c(cc1OC1CCCC1)N=C(c1c(F)cccc1Cl)Nc1c[nH]nc1-2 [Compound 245, 5-(2-chloro-6-fluorophenyl)-8-(cyclopentyloxy)-9-fluoro-2,4-dihydrobenzo[d]pyrazolo[3,4-f][1,3]diazepine] |

| SMILES | IC50 [1] | IC50 [2] |
| --- | --- | --- |
| Fc1cc2c(cc1-c1ccccc1)N=C(c1c(F)cccc1F)Nc1c[nH]nc1-2 [Compound 231, 5-(2,6-difluorophenyl)-9-fluoro-8-phenyl-2,4-dihydrobenzo[d]pyrazolo[3,4-f][1,3]diazepine] | 10 to 100 nM | 10 to 100 nM |
| CCC(C)Oc1cc2c(cc1F)-c1n[nH]cc1N=C(c1c(F)cccc1Cl)N2 (stereo not drawn) [Compound 239, 8-(sec-butoxy)-5-(2-chloro-6-fluorophenyl)-9-fluoro-2,6-dihydrobenzo[d]pyrazolo[3,4-f][1,3]diazepine] | 10 to 100 nM | 100 to 1000 nM |
| CC[C@H](C)Oc1cc2c(cc1F)-c1n[nH]cc1N=C(c1c(F)cccc1Cl)N2 [Compound 247, (S)-8-(sec-butoxy)-5-(2-chloro-6-fluorophenyl)-9-fluoro-2,6-dihydrobenzo[d]pyrazolo[3,4-f][1,3]diazepine] | 10 to 100 nM | 10 to 100 nM |
